# In ChEMBL document CHEMBL2028040, “Malaria Box”:
# Key:
# [1] = system: Trypanosoma brucei brucei; assay: MMV: Inhibition of Trypanosoma brucei brucei (Squib 427) (HAT in vitro).; format: functional, organism-based
# [2] = system: Trypanosoma cruzi; assay: MMV: Inhibition of Trypanosoma cruzi (Tulahuen C4 LacZ) (Chagas in vitro).; format: functional, organism-based
# [3] = MMV: Cytotoxicity against human fibroblasts (MRC-5) cells.; conditions: MRC-5 cells (human fibroblasts)
# [4] = system: Trypanosoma brucei rhodesiense; assay: MMV: Inhibition of Trypanosoma brucei rhodesiense (STIB 900) (HAT in vitro).; format: functional, organism-based
# [5] = system: Plasmodium falciparum; assay: MMV: Inhibition of Plasmodium falciparum 3D7 at 5uM compound concentration.; format: functional
# [6] = system: Leishmania infantum; assay: MMV: Inhibition of Leishmania infantum (MHOM/MA/BE/67) in vitro.; format: functional, organism-based
# [7] = system: Plasmodium falciparum; assay: MMV: Inhibition of Plasmodium falciparum 3D7 (EC50).; format: functional, organism-based
Structure (SMILES),IC50 [1] [µM],IC50 [2] [µM],IC50 [3] [µM],IC50 [4] [µM],inhibition at 5 µM [5] [%],IC50 [6] [µM],EC50 [7] [µM]
COc1ccc(-c2cc3c(nn2)-c2ccccc2C3=O)cc1,> 32,> 32,> 32,> 32,97,> 32,
CCN(CC)CCNc1ccnc2cc(Cl)ccc12,10.2,6.35,> 32,10.3,,17.3,0.0581
FC(F)(F)c1ccc(Nc2nnnc3ccccc23)cc1,> 32,> 32,> 32,> 32,77,> 32,
O=c1nc(C=Cc2ccc(Br)cc2)oc2ccccc12,16,4.17,4,16.1,94,4.06,
COCCNC(=O)c1ccc(OC2CCN(Cc3ccc(F)c(F)c3)CC2)c(Cl)c1,> 32,> 32,> 32,16.1,91,> 32,
O=C(NC1CCCC1)c1ccc(N2CCC(NCc3cccc(C(F)(F)F)c3)CC2)cc1,> 32,21.3,> 32,14.4,93,16.6,
CCN(CC)CCNc1ccnc2cc3ccccc3cc12,4.06,14.8,12.2,3.94,,4.32,0.391
COc1ccc(Nc2cc(C)nc(NCc3ccccc3)n2)cc1,2.95,1.04,13.5,3.86,,4.32,0.467
N=c1c2ccccc2nnn1-c1cccc(C(F)(F)F)c1,> 32,> 32,> 32,> 32,83,> 32,
Cc1ccc(OCCCCCCNCCO)c(C)c1,3.72,16,> 32,3.94,49,16.1,
O=C(c1ccccc1F)N(Cc1ccc(Cl)cc1)c1ccccn1,> 32,> 32,> 32,> 32,59,> 32,
COCCn1c(C)nc2ccccc2c1=O,> 32,> 32,> 32,> 32,59,> 32,
O=C(Nc1ccc(Cl)cc1)N1CCN(c2ccc3nncn3n2)CC1,> 32,> 32,> 32,> 32,62,> 32,
CN(C)c1ccc(-c2nc3cc(N)ccc3[nH]2)cc1,19.6,17.4,> 32,18,64,> 32,
O=C(CSc1ccc2nnc(-c3cccc(F)c3)n2n1)Nc1ccc2c(c1)OCO2,> 32,> 32,> 32,> 32,92,> 32,
CCCC(c1nnnn1C1CCCCC1)N1CCN(C(=O)c2ccco2)CC1 (stereo not given),> 32,> 32,> 32,> 32,82,> 32,
Cc1ccc(CN2CCC(C(=O)Nc3ccc(-c4cc5ccccc5[nH]4)cc3)CC2)o1,3.33,15.9,15.7,0.971,77,13.6,
O=C(Nc1ccsc1C(=O)NC1CCCCC1)c1ccc(F)cc1,> 32,> 32,> 32,> 32,86,> 32,

Structure (SMILES),IC50 [1] [µM],IC50 [2] [µM],IC50 [3] [µM],IC50 [4] [µM],inhibition at 5 µM [5] [%],IC50 [6] [µM],EC50 [7] [µM]
O=C(Nc1ccc(Cl)cc1C(=O)Nc1ccncc1)c1ccc(Cl)cc1Cl,> 32,> 32,> 32,> 32,94,> 32,
CC(C)(C)c1ccc(C(=O)Nc2c3c(nn2-c2cccc(Cl)c2)CSC3)cc1,16.1,> 32,> 32,> 32,93,> 32,
COc1ccc(N2CCN(C(CNC(=O)CC(C)(C)C)c3ccc4c(c3)OCO4)CC2)cc1 (stereo not given),> 32,19.7,> 32,27.6,95,> 32,
COc1ccc(C2N(C)c3ccccc3N2C)cc1,> 32,> 32,> 32,> 32,62,> 32,
O=C(Nc1ccccc1O)c1ccc(-c2ccc(Cl)cc2Cl)o1,13.7,> 32,> 32,13.5,97,> 32,
Oc1ccc(Br)cc1CN1CCN(Cc2cccc(F)c2)CC1,> 32,12.6,> 32,16.7,,25.4,1.03
Oc1ccc(C(=C(Cl)Cl)c2ccc(O)cc2)cc1,> 32,> 32,> 32,> 32,95,> 32,
CCOc1ccc(-c2nc(NC(=O)c3cccc(S(C)(=O)=O)c3)sc2C)cc1,14.9,> 32,> 32,15.3,95,> 32,
Clc1ccc2[nH]c3c(NCCCN4CCOCC4)ncnc3c2c1,> 32,21.3,> 32,3.94,,> 32,0.7
COc1ccc(Nc2nc(NCc3ccccc3)c3ccccc3n2)cc1,3.84,3.55,12.4,4.03,,1.01,0.589
COc1ccccc1N1CCN(C(CNS(=O)(=O)c2ccc(Cl)cc2)c2cccnc2)CC1 (stereo not given),16.2,0.899,> 32,16.2,93,> 32,
CCCc1c(C)nc2ccccc2c1O,> 32,> 32,> 32,> 32,88,> 32,
OC1CCCCC1C1(NC(=S)Nc2ccccc2)CCCCC1 (stereo not given),12.4,12.2,> 32,4.12,59,4.32,
Cc1cc(N2CCN(C3CCCC3)CC2)n2c(nc3ccccc32)c1C#N,> 32,> 32,> 32,> 32,,> 32,0.683
CCN(CC)CCCNc1nc(-c2ccc(Cl)cc2)nc2ccccc12,0.271,8.56,15.8,0.25,92,4,
Cc1ccc(Nc2nc(NCCO)c3ccccc3n2)cc1C,8.22,2.99,11.4,3.83,,2.52,0.428
CN1CCN(c2nc(Nc3ccc(O)cc3)nc3ccccc23)CC1,4.69,11.1,> 32,3.28,,13.6,1.43
